13 molecules from ChEMBL document CHEMBL6177998, “Rational Design of Dual Degraders by Incorporating Molecular Glue Structural Features into PROTAC Degraders” (J Med Chem, 2025) can be followed below.

What all share (format): cell-based
Assay [1] has as its system Protein cereblon/Androgen receptor (Homo sapiens), P10275+Q96SW2 [UNDEFINED MUTATION]. The experiment in a line: PROTAC activity at CRBN/Androgen receptor splice variant 7 in human 22Rv1 cells assessed as induction of AR-V7 degradation at 5 uM incubated for 24 hrs by Western blot analysis relative to control. In general terms: A western blot detects proteins with antibodies after separation by electrophoresis.

In assay [2] the target is T1, Protein cereblon/Androgen receptor (Homo sapiens, UniProt P10275+Q96SW2). The assay can be described thus: PROTAC activity at CRBN/AR in human 22Rv1 cells assessed as induction of AR degradation at 1 uM incubated for 24 hrs by Western blot analysis relative to control.
T1 sequence (P10275 whole entry, looked up): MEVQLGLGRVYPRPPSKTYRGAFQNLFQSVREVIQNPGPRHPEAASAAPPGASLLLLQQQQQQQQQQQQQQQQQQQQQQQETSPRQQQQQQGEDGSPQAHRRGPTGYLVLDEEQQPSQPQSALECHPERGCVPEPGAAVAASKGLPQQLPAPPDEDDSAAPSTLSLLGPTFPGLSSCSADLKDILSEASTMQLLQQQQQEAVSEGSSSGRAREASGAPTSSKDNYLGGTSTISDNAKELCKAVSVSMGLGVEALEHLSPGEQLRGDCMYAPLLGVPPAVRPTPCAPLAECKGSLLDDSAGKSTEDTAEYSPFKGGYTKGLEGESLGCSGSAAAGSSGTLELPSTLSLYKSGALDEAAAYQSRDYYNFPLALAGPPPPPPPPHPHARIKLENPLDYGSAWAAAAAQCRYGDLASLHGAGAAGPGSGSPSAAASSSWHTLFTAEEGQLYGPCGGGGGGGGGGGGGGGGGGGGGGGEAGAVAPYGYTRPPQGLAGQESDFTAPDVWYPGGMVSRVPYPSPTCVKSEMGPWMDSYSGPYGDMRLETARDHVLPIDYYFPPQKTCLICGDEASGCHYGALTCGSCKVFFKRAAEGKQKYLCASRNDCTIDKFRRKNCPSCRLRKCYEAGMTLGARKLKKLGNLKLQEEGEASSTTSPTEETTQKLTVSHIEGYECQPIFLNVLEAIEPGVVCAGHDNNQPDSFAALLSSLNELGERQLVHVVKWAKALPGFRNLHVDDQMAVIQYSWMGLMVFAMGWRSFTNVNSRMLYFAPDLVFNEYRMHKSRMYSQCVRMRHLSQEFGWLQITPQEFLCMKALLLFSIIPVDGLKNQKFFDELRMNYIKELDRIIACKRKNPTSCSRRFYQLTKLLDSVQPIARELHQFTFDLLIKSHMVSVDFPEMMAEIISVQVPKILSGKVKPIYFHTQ
T1 sequence (Q96SW2 whole entry, looked up): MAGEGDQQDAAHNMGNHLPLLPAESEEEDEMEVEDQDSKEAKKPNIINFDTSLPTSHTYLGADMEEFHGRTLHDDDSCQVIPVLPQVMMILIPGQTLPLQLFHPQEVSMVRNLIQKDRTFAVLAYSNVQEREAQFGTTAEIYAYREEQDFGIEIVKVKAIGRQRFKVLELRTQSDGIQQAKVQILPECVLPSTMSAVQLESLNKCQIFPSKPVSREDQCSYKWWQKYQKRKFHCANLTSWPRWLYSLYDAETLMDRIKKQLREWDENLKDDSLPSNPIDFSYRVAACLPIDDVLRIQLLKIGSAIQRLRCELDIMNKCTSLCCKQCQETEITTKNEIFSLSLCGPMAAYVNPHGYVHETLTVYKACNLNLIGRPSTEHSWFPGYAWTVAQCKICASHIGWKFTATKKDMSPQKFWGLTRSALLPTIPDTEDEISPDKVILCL
In assay [3] the target is T1, Protein cereblon/Androgen receptor. The experiment in a line: PROTAC activity at CRBN/AR in human 22Rv1 cells assessed as induction of AR degradation at 5 uM incubated for 24 hrs by Western blot analysis relative to control.
In assay [4] the test system is Protein cereblon/Androgen receptor (Homo sapiens), P10275+Q96SW2 [UNDEFINED MUTATION]. The experiment in a line: PROTAC activity at CRBN/Androgen receptor splice variant 7 in human VCaP cells assessed as induction of AR-V7 degradation at 5 uM incubated for 24 hrs by Western blot analysis relative to control.
Chain of Protein cereblon/Androgen receptor (Homo sapiens), P10275+Q96SW2 [UNDEFINED MUTATION] (P10275 whole entry, looked up, stated change not applied, canonical isoform): as the sequence (P10275 whole entry, looked up) above
Chain of Protein cereblon/Androgen receptor (Homo sapiens), P10275+Q96SW2 [UNDEFINED MUTATION] (Q96SW2 whole entry, looked up, stated change not applied, canonical isoform): as the sequence (Q96SW2 whole entry, looked up) above
In assay [5] the target is T2, Protein cereblon/Eukaryotic peptide chain release factor GTP-binding subunit ERF3A (Homo sapiens, UniProt Q96SW2+P15170). The assay can be described thus: Molecular glue activity at CRBN/GSPT1 in human 22Rv1 cells assessed as induction of GSPT1 degradation at 1 uM incubated for 24 hrs by Western blot analysis relative to control.
T2 sequence (P15170 whole entry, looked up, canonical isoform): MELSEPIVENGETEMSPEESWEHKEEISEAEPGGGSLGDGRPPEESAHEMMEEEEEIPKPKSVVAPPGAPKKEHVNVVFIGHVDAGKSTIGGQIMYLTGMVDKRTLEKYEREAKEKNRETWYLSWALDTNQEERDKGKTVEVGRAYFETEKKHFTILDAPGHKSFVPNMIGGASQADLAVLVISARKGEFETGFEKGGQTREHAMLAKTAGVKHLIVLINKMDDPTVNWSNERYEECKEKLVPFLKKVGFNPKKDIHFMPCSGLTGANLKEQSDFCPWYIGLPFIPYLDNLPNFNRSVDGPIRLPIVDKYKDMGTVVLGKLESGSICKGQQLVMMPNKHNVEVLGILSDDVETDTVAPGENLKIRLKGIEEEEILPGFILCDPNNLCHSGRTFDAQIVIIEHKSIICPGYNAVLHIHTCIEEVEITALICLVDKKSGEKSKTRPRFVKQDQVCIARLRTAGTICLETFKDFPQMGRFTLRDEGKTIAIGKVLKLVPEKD
T2 sequence (Q96SW2 whole entry, looked up, canonical isoform): as the sequence (Q96SW2 whole entry, looked up) above
Assay [6] has as its system Protein cereblon/Androgen receptor (Homo sapiens), P10275+Q96SW2 [UNDEFINED MUTATION]. The experiment in a line: PROTAC activity at CRBN/Androgen receptor splice variant 7 in human VCaP cells assessed as induction of AR-V7 degradation at 1 uM incubated for 24 hrs by Western blot analysis relative to control.
Assay [7] shares this test system. The experiment in a line: PROTAC activity at CRBN/Androgen receptor splice variant 7 in human 22Rv1 cells assessed as induction of AR-V7 degradation at 1 uM incubated for 24 hrs by Western blot analysis relative to control.
For assay [8], the target named is T1, Protein cereblon/Androgen receptor. The assay can be described thus: PROTAC activity at CRBN/AR in human VCaP cells assessed as induction of AR degradation at 5 uM incubated for 24 hrs by Western blot analysis relative to control.
The target in assay [9] is T2, Protein cereblon/Eukaryotic peptide chain release factor GTP-binding subunit ERF3A. The experiment in a line: Molecular glue activity at CRBN/GSPT1 in human 22Rv1 cells assessed as induction of GSPT1 degradation at 5 uM incubated for 24 hrs by Western blot analysis relative to control.
The target of assay [10] is T1, Protein cereblon/Androgen receptor. The assay can be described thus: PROTAC activity at CRBN/AR in human VCaP cells assessed as induction of AR degradation at 1 uM incubated for 24 hrs by Western blot analysis relative to control.

As for `CC(C)(c1ccc(OCC2CCN(C(=O)CCCCCCNc3ccc4c(c3)C(=O)N(C3CCC(=O)NC3=O)C4=O)CC2)cc1)c1ccc(OC[C@H](O)CCl)cc1` (stereo not given in full), the Activity in assay [1] is 30.7%; in [2], 14.4%; in [3] it was 33.1%; in assay [4], less than 5%; in assay [5] it was 81%; in assay [6], less than 5%. The Activity was 8.6% in [7], 14.2% in assay [8], 79.8% in [9] and less than 5% in assay [10].
Consider `CC(C)(c1ccc(OCC2CCN(C3CN(C(=O)CCCCNc4ccc5c(c4)C(=O)N(C4CCC(=O)NC4=O)C5=O)C3)CC2)cc1)c1ccc(OC[C@H](O)CCl)cc1` (stereo not given in full), for which the Activity in assay [1] is less than 5%; in [2], 13.5%; in assay [3], less than 5%; in assay [4], 6.4%; in assay [5], 33.8%; in assay [6] it was 14.9%. In addition, the Activity in assay [7] worked out at 5%; in assay [8] it was 40.9%; in assay [9], 41.2%; in [10] it was 17.7%.
Take `CC(C)(c1ccc(OCC2CCN(C(=O)CCCCCOc3ccc4c(c3)C(=O)N(C3CCC(=O)NC3=O)C4=O)CC2)cc1)c1ccc(OC[C@H](O)CCl)cc1` (stereo not given in full): the Activity was 67.4% in assay [1]; 5.8% in [2]; 43.6% in assay [3]; 34% in assay [4]; 86.1% in assay [5]; less than 5% in assay [6]. Further, the Activity in assay [7] was determined as 29.9%; in [8] it was 20%; in assay [9], 95.5%; in [10], 5.9%.
`CC(C)(c1ccc(OCC2CCN(C3CN(C(=O)CCNc4ccc5c(c4)C(=O)N(C4CCC(=O)NC4=O)C5=O)C3)CC2)cc1)c1ccc(OC[C@H](O)CCl)cc1` (stereo not given in full): the Activity is less than 5% in assay [1]; less than 5% in assay [2]; less than 5% in [3]; 11.9% in assay [4]; 14.4% in [5]; 20% in [6]. Further, the Activity was 5% in assay [7], 19.8% in [8], 15.5% in [9] and 32.7% in [10].
With `CC(C)(c1ccc(OCC2CCN(C(=O)CCCCCCCNc3cccc4c3C(=O)N(C3CCC(=O)NC3=O)C4=O)CC2)cc1)c1ccc(OC[C@H](O)CCl)cc1` (stereo not given in full), the Activity in assay [1] was determined as 52.3%; in [2], 7.8%; in assay [3] it was 25%; in [4], 14.3%; in [5], 32.3%; in assay [6], 8.4%. Moreover, the Activity in assay [7] was 12.5%; in [8] it was less than 5%; in assay [9], 45.8%; in assay [10], less than 5%.
Turning to `CC(C)(c1ccc(OCC2CCN(C(=O)CCCCCCNc3cccc4c3C(=O)N(C3CCC(=O)NC3=O)C4=O)CC2)cc1)c1ccc(OC[C@H](O)CCl)cc1` (stereo not given in full), the Activity was 11% in [1]; 10.1% in assay [2]; 38% in assay [3]; 9.2% in assay [4]; 36.5% in assay [5]; less than 5% in assay [6]. The Activity in assay [7] was less than 5%; in [8] it was less than 5%; in assay [9] it was 39.8%; in [10], less than 5%.
`CC(C)(c1ccc(OCC2CCN(C3CN(C(=O)CCCNc4ccc5c(c4)C(=O)N(C4CCC(=O)NC4=O)C5=O)C3)CC2)cc1)c1ccc(OC[C@H](O)CCl)cc1` (stereo not given in full): the Activity in [1] was less than 5%; in assay [2], 12.1%; in [3] it was 10.2%; in assay [4] it was 24.2%; in assay [5], 57.5%; in [6], less than 5%. The Activity was 5% in assay [7], 25.4% in assay [8], 76.7% in assay [9] and 6.8% in assay [10].
In the case of `CC(C)(c1ccc(OCC2CCN(C(=O)CCCCCCOc3ccc4c(c3)C(=O)N(C3CCC(=O)NC3=O)C4=O)CC2)cc1)c1ccc(OC[C@H](O)CCl)cc1` (stereo not given in full), the Activity in assay [1] was 33.9%; in assay [2] it was 20.1%; in assay [3], 16.4%; in assay [4], less than 5%; in assay [5], 77.9%; in assay [6], less than 5%. For the same molecule, the Activity was 34.4% in [7], 8% in [8], 92.7% in assay [9] and less than 5% in assay [10].
With `CC(C)(c1ccc(OCC2CCN(C(=O)CCCCNc3ccc4c(c3)C(=O)N(C3CCC(=O)NC3=O)C4=O)CC2)cc1)c1ccc(OC[C@H](O)CCl)cc1` (stereo not given in full), the Activity in assay [1] turned out to be 9.3%; in [2] it was 8.6%; in [3] it was 21.6%; in [4] it was 8.2%; in [5], 86%; in [6] it was 5.9%. The Activity in [7] was determined as 11.8%; in [8], 13.7%; in assay [9], 89.3%; in assay [10] it was 8.5%.
For the molecule `CC(C)(c1ccc(OCC2CCN(C(=O)CCCC#Cc3ccc4c(c3)C(=O)N(C3CCC(=O)NC3=O)C4=O)CC2)cc1)c1ccc(OC[C@H](O)CCl)cc1` (stereo not given in full), the Activity is 18.1% in assay [1]; 24.6% in assay [2]; less than 5% in assay [3]; 5.2% in assay [4]; 28.5% in [5]; 7.4% in assay [6]. Moreover, the Activity in assay [7] was 48.2%; in [8] it was less than 5%; in assay [9], 34%; in assay [10] it was 8.4%.
On to `CC(C)(c1ccc(OCC2CCN(C(=O)CCCCCNc3cccc4c3C(=O)N(C3CCC(=O)NC3=O)C4=O)CC2)cc1)c1ccc(OC[C@H](O)CCl)cc1` (stereo not given in full), for which the Activity in [1] turned out to be 25.5%; in [2] it was 11.7%; in [3], 19.7%; in assay [4], 36.1%; in [5] it was 65.1%; in [6], 21.6%. Moreover, the Activity in assay [7] is 28.4%; in assay [8] it was 11.7%; in [9], 68.9%; in assay [10], less than 5%.
As to `CC(C)(c1ccc(OCC2CCN(C(=O)CCCCCCCNc3ccc4c(c3)C(=O)N(C3CCC(=O)NC3=O)C4=O)CC2)cc1)c1ccc(OC[C@H](O)CCl)cc1` (stereo not given in full), the Activity in [1] is less than 5%; in assay [2] it was less than 5%; in assay [3] it was 7.5%; in assay [4] it was 7%; in [5], 37.2%; in [6] it was less than 5%. The Activity in assay [7] was less than 5%; in [8], 10.2%; in assay [9], 42%; in assay [10], 4.9%.
As for `CC(C)(c1ccc(OCC2CCN(C(=O)CCCCC#Cc3ccc4c(c3)C(=O)N(C3CCC(=O)NC3=O)C4=O)CC2)cc1)c1ccc(OC[C@H](O)CCl)cc1` (stereo not given in full), the Activity in [1] is 14.6%; in [2], 13.7%; in assay [3], less than 5%; in assay [4] it was 26.4%; in assay [5] it was 25.5%; in assay [6], less than 5%. Moreover, the Activity in assay [7] is 34.8%; in assay [8], 18.6%; in assay [9] it was 30.7%; in assay [10] it was less than 5%.
